Reference: patent US20180153995A1, “USE OF ANTIMICROBIAL POLYMERS FOR RE-SENSITIZATION OF MICROORGANISMS UPON EMERGENCE OF RESISTANCE TO ANTI-MICROBIAL AGENTS” (Technion Research & Development Foundation Limited, priority 2008, published 2018)
Read-outs that look alike come from different tables or passages of the source.

Key:
S. aureus 43300 = experiment: Antibiotic MIC by microdilution with or without sub-MIC polymer; type: cell-based, Staphylococcus aureus
Description: (§1) MICs were determined by microdilution susceptibility testing in 96-well plates (by Nunc) using inocula of 10^5 bacteria per ml. Cell populations were evaluated by optical density measurements at 620 nm and were calibrated against a set of standards. Hundred (100) μl of a bacterial suspension were added to 100 μl of culture medium (control) or to 100 μl of culture medium containing various polymer concentrations in 2-fold serial dilutions. Inhibition of proliferation was determined by optical density measurements at 620 nm after an incubation period of 24 hours at 37° C.
Table 8 below presents the MIC values of antibiotics in presence or absence of C12(5-ene)KKNC12KNH2 (SEQ ID NO: 2) at sub-MIC levels of the polymer, as measured for the S. aureus strains 43300 (ATCC), 15819 (clinical isolate), 15877 (clinical isolate) and 15852 (clinical isolate). MICs were determined by microdilution susceptibility testing in 96-well plates (Nunc) using inocula of 10^5 bacteria per ml. One hundred (100) μl of a bacterial suspension were added to 100 μl of culture medium (control) or to 100 μl of culture medium containing various antibiotic and C12(5-ene)KKNC12KNH2 (SEQ ID NO: 2) concentrations in 2-fold serial dilutions. Inhibition of proliferation was determined by optical density measurements at 620 nm after an incubation period of 24 hours at 37° C.
(§2) 100 μl of a bacterial suspension were added to 100 μl of culture medium (control) or to 100 μl of culture medium containing various antibiotic and C14(9-ene)KKNC12KNH2 (SEQ ID NO: 5) concentrations in 2-fold serial dilutions. Inhibition of proliferation was determined by optical density measurements at 620 nm after an incubation period of 24 hours at 37° C.

P. mirabilis 1285 [1] = type: cell-based, Proteus mirabilis; conditions: no polymer (None), Table 12
Description: as §1, §2

MRSA 15852 = type: cell-based, Staphylococcus aureus; conditions: S. aureus 15852
Description: The fractionary inhibitory (FIC) concentration index for combinations of two antimicrobial agents was calculated as follows: FIC index=FICA+FICB=A/MICA+B/MICB where A and B are the MIC values of agent A and agent B in the combination, MICA and MICB are the MICs of agent A and agent B alone, and FICA and FICB are the FICs of agent A and agent B.
The FIC indexes were interpreted as follows: less than 0.5 indicates a clear re-sensitizing effect; from 0.5 to 4 indicates a marginal or null re-sensitizing effect; and over 4 indicates antagonism.

P. mirabilis 1285 [2] = type: cell-based, Proteus mirabilis
P. aeruginosa 8732 = experiment: Antibiotic MIC by microdilution with or without sub-MIC polymer; type: cell-based, Pseudomonas aeruginosa
Description: as §1
Inhibition of proliferation was determined by optical density measurements at 620 nm after an incubation period of 24 hours at 37° C.

[3] = tested on: E. coli N281 (L22 mutation); type: cell-based, Escherichia coli; conditions: E. coli N281 L22 mutation
[4] = tested on: E. coli AB301 (wild type); experiment: Erythromycin MIC with or without sub-MIC polymer; type: cell-based, Escherichia coli
E. coli AG100/ks = experiment: Antibiotic MIC with or without sub-MIC polymer (Tables 20, 21); type: cell-based, Escherichia coli
E. coli AG100 = experiment: as above; type: cell-based, Escherichia coli
[5] = +¼ MIC (1.6 μM) C14(9-ene)KKNC12KNH2
[6] = +½ MIC (3.12 μM) C12(5-ene)KKNC12KNH2
[7] = +½ MIC (3.12 μM) C14(9-ene)KKNC12KNH2
[8] = +⅓ MIC (2.1 μM) C14(9-ene)KKNC12KNH2
[9] = +¼ MIC (1.6 μM) C12(5-ene)KKNC12KNH2
[10] = +⅓ MIC (2.1 μM) C12(5-ene)KKNC12KNH2
[11] = +¼ MIC (1.6 μM) C12K(KNC12K)2NH2
[12] = +½ MIC (3.12 μM) C12K(KNC12K)2NH2
[13] = +⅓ MIC (2.1 μM) C12K(KNC12K)2NH2
[14] = P. aeruginosa 8732, no polymer (None), Table 10
[15] = P. aeruginosa 8732, +½ MIC (3.12 μM) C16(9-ene)KKNC12KNH2
[16] = P. aeruginosa 8732, +⅓ MIC (2.1 μM) C16(9-ene)KKNC12KNH2

O=C(O)c1cn(C2CC2)c2cc(N3CCNCC3)c(F)cc2c1=O [Ciprofloxacin, ciprofloxacin]
0.5 µg/mL: Antibiotic MIC (S. aureus 43300; no polymer (None), Table 8) | Antibiotic MIC (S. aureus 43300; no polymer (None), Table 9) | Antibiotic MIC (S. aureus 43300; no polymer (None), Table 11) | Antibiotic MIC (S. aureus 43300; no polymer (None), Table 12)
0.03 µg/mL: Antibiotic MIC (S. aureus 43300; [6])
<0.03 µg/mL: Antibiotic MIC (P. aeruginosa 8732; [14])
16 µg/mL: Antibiotic MIC (MRSA 15852; [9]) | Antibiotic MIC (MRSA 15852; [6]) | Antibiotic MIC (MRSA 15852; [10]) | Antibiotic MIC (MRSA 15852; no polymer (None), Table 8) | Antibiotic MIC (P. mirabilis 1285 [2]; [13])
0.25 µg/mL: Antibiotic MIC (S. aureus 43300; [7]) | Antibiotic MIC (S. aureus 43300; no polymer (None), Table 10)
32 µg/mL: Antibiotic MIC (P. mirabilis 1285 [1]) | Antibiotic MIC (MRSA 15852; +¼ MIC (1.6 μM) C12KKNC12KNH2) | Antibiotic MIC (MRSA 15852; +½ MIC (3.12 μM) C12KKNC12KNH2) | Antibiotic MIC (MRSA 15852; +⅓ MIC (2.1 μM) C12KKNC12KNH2) | Antibiotic MIC (MRSA 15852; no polymer (None), Table 11) | Antibiotic MIC (P. mirabilis 1285 [2]; [11])
0.25 to 0.5 µg/mL: Antibiotic MIC (S. aureus 43300; [5]) | Antibiotic MIC (S. aureus 43300; [8])
8 µg/mL: Antibiotic MIC (P. mirabilis 1285 [2]; [12])

CC[C@H]1OC(=O)[C@H](C)[C@@H](O[C@H]2C[C@@](C)(OC)[C@@H](O)[C@H](C)O2)[C@H](C)[C@@H](O[C@@H]2O[C@H](C)C[C@H](N(C)C)[C@H]2O)[C@](C)(O)C[C@@H](C)C(=O)[C@H](C)[C@@H](O)[C@]1(C)O [Erythromycin, erythromycin]
512 µg/mL: Antibiotic MIC ([3]; +¼ MIC C12K(NC8K)5NH2) | Antibiotic MIC ([3]; +⅓ MIC C12K(NC8K)7NH2)
32 µg/mL: Antibiotic MIC ([4]; +¼ MIC C12K(NC8K)5NH2) | Antibiotic MIC ([4]; +¼ MIC C12K(NC8K)7NH2)
8 µg/mL: Antibiotic MIC ([4]; +½ MIC C12K(NC8K)5NH2)
>512-512 μg/ml: Antibiotic MIC ([3]; +¼ MIC C12K(NC8K)7NH2)
>512 µg/mL: Antibiotic MIC ([3]; no OAK, Table 18) | Antibiotic MIC ([3]; no OAK, Table 19) | Antibiotic MIC (MRSA 15852; [9]) | Antibiotic MIC (MRSA 15852; +¼ MIC (1.6 μM) C12KKNC12KNH2) | Antibiotic MIC (MRSA 15852; [6]) | Antibiotic MIC (MRSA 15852; +½ MIC (3.12 μM) C12KKNC12KNH2) | Antibiotic MIC (MRSA 15852; [10]) | Antibiotic MIC (MRSA 15852; +⅓ MIC (2.1 μM) C12KKNC12KNH2) | Antibiotic MIC (MRSA 15852; no polymer (None), Table 8) | Antibiotic MIC (MRSA 15852; no polymer (None), Table 11)
16 to 32 µg/mL: Antibiotic MIC ([3]; +½ MIC C12K(NC8K)5NH2) | Antibiotic MIC ([4]; +⅓ MIC C12K(NC8K)5NH2) | Antibiotic MIC ([4]; +⅓ MIC C12K(NC8K)7NH2)
4 to 8 µg/mL: Antibiotic MIC ([4]; +½ MIC C12K(NC8K)7NH2)

CCN1CCN(C(=O)N[C@@H](C(=O)N[C@@H]2C(=O)N3[C@@H]2SC(C)(C)[C@@H]3C(=O)O)c2ccccc2)C(=O)C1=O [Piperacillin, piperacillin]
>512 µg/mL: Antibiotic MIC, None (E. coli AG100/ks; antibiotic alone (Table 20)) | Antibiotic MIC, None (E. coli AG100/ks; antibiotic alone (Table 21)) | Antibiotic MIC in presence of C12K(NC8K)5NH2 (SEQ ID NO: 3), +¼ MIC (E. coli AG100/ks; polymer at ¼ of its MIC) | Antibiotic MIC in presence of C12K(NC8K)7NH2 (SEQ ID NO: 4), +¼ MIC (E. coli AG100/ks; polymer at ¼ of its MIC) | Antibiotic MIC in presence of C12K(NC8K)5NH2 (SEQ ID NO: 3), +⅓ MIC (E. coli AG100/ks; polymer at ⅓ of its MIC) | Antibiotic MIC in presence of C12K(NC8K)7NH2 (SEQ ID NO: 4), +⅓ MIC (E. coli AG100/ks; polymer at ⅓ of its MIC)
2 µg/mL: Antibiotic MIC, None (E. coli AG100; antibiotic alone (Table 20)) | Antibiotic MIC, None (E. coli AG100; antibiotic alone (Table 21)) | Antibiotic MIC in presence of C12K(NC8K)7NH2 (SEQ ID NO: 4), +¼ MIC (E. coli AG100; polymer at ¼ of its MIC)
256 µg/mL: Antibiotic MIC (MRSA 15852; +¼ MIC (1.6 μM) C12KKNC12KNH2) | Antibiotic MIC (MRSA 15852; +½ MIC (3.12 μM) C12KKNC12KNH2) | Antibiotic MIC (MRSA 15852; +⅓ MIC (2.1 μM) C12KKNC12KNH2) | Antibiotic MIC (MRSA 15852; no polymer (None), Table 11) | Antibiotic MIC (P. aeruginosa 8732) | Antibiotic MIC (P. aeruginosa 8732; [15]) | Antibiotic MIC (P. aeruginosa 8732; [16]) | Antibiotic MIC (P. aeruginosa 8732; [14])
0.5 µg/mL: Antibiotic MIC in presence of C12K(NC8K)5NH2 (SEQ ID NO: 3), +½ MIC (E. coli AG100; polymer at ½ of its MIC) | Antibiotic MIC in presence of C12K(NC8K)7NH2 (SEQ ID NO: 4), +½ MIC (E. coli AG100; polymer at ½ of its MIC)
32 µg/mL: Antibiotic MIC (S. aureus 43300; no polymer (None), Table 11) | Antibiotic MIC (S. aureus 43300; no polymer (None), Table 12)
512 µg/mL: Antibiotic MIC (P. mirabilis 1285 [1]) | Antibiotic MIC (P. mirabilis 1285 [2]; [11]) | Antibiotic MIC (P. mirabilis 1285 [2]; [12]) | Antibiotic MIC (P. mirabilis 1285 [2]; [13])
16 µg/mL: Antibiotic MIC (S. aureus 43300; [5]) | Antibiotic MIC (S. aureus 43300; [7]) | Antibiotic MIC (S. aureus 43300; [8]) | Antibiotic MIC (S. aureus 43300; no polymer (None), Table 8) | Antibiotic MIC (S. aureus 43300; no polymer (None), Table 9) | Antibiotic MIC (S. aureus 43300; no polymer (None), Table 10)
128 µg/mL: Antibiotic MIC (MRSA 15852; [9]) | Antibiotic MIC (MRSA 15852; [6]) | Antibiotic MIC (MRSA 15852; [10]) | Antibiotic MIC (MRSA 15852; no polymer (None), Table 8)
1 to 2 µg/mL: Antibiotic MIC in presence of C12K(NC8K)5NH2 (SEQ ID NO: 3), +¼ MIC (E. coli AG100; polymer at ¼ of its MIC)
>512-512 μg/ml: Antibiotic MIC in presence of C12K(NC8K)5NH2 (SEQ ID NO: 3), +½ MIC (E. coli AG100/ks; polymer at ½ of its MIC) | Antibiotic MIC in presence of C12K(NC8K)7NH2 (SEQ ID NO: 4), +½ MIC (E. coli AG100/ks; polymer at ½ of its MIC)
1 µg/mL: Antibiotic MIC (S. aureus 43300; [6]) | Antibiotic MIC in presence of C12K(NC8K)5NH2 (SEQ ID NO: 3), +⅓ MIC (E. coli AG100; polymer at ⅓ of its MIC) | Antibiotic MIC in presence of C12K(NC8K)7NH2 (SEQ ID NO: 4), +⅓ MIC (E. coli AG100; polymer at ⅓ of its MIC)

CN(C)[C@@H]1C(O)=C(C(N)=O)C(=O)[C@@]2(O)C(O)=C3C(=O)c4c(O)cccc4[C@@](C)(O)[C@H]3C[C@@H]12 [Tetracycline, tetracycline]
0.5 µg/mL: Antibiotic MIC (S. aureus 43300; no polymer (None), Table 11) | Antibiotic MIC (S. aureus 43300; no polymer (None), Table 12)
0.25 µg/mL: Antibiotic MIC (S. aureus 43300; no polymer (None), Table 8) | Antibiotic MIC (S. aureus 43300; no polymer (None), Table 9) | Antibiotic MIC (S. aureus 43300; no polymer (None), Table 10)

gentamicin
32 µg/mL: Antibiotic MIC (P. mirabilis 1285 [1]) | Antibiotic MIC (P. mirabilis 1285 [2]; [11]) | Antibiotic MIC (P. mirabilis 1285 [2]; [12]) | Antibiotic MIC (P. mirabilis 1285 [2]; [13])
4 µg/mL: Antibiotic MIC (P. aeruginosa 8732; P. aeruginosa 8732, +¼ MIC (1.6 μM) C16(9-ene)KKNC12KNH2) | Antibiotic MIC (P. aeruginosa 8732; [15]) | Antibiotic MIC (P. aeruginosa 8732; [16]) | Antibiotic MIC (P. aeruginosa 8732; [14])
64 µg/mL: Antibiotic MIC (S. aureus 43300; no polymer (None), Table 10)
64 to 128 µg/mL: Antibiotic MIC (S. aureus 43300; [5]) | Antibiotic MIC (S. aureus 43300; [7]) | Antibiotic MIC (S. aureus 43300; [8]) | Antibiotic MIC (S. aureus 43300; no polymer (None), Table 9)
